Values quoted from earlier work in patent EP2939710B1, “Active Mixtures” (Symrise AG, priority 2014, dated 2015).

Settings: water (20° dH) at 20 °C, solid active agent

Nc1nc2c(ncn2COCCO)c(=O)[nH]1 [Acyclovir, 2-Amino-1,9-dihydro-9-((2-hydroxyethoxy)methyl)-6H-Purin-6-one]
solubility in water: less than 5 g/L
